Patent US20130317037A1, “METHOD OF ADMINISTRATION AND TREATMENT” (GlaxoSmithKline Intellectual Property Development Limited, priority 2010, published 2013)
pIC50: −log10 of the molar value. Where two headings read alike, the source gives them in different places.

Experiments:
BT483 = assay: cells; format: cell-based
Description: (§1) From the stock concentration, 8 serial dilutions (1:5) were made with DMSO.
(§2) Day −1: Plate cells in 100 μl volume in 96 well plate. • Note: Cell number seeded adjusted for growth characteristics, so that at time of assay for proliferation following three-day drug treatment, the control wells should still be in log-growth phase (sub-confluent). Day 0: Drug added to plate for treatment. • A time 0 plate was processed for the proliferation assay to establish a baseline reading at time when drug was added.
(§3) LBNL are following the protocols set up by the NCI/NIH DTP Human Tumor Cell Line Screen Process (http://dtp.nci.nih.gov/branches/btb/ivclsp.html) and summarized below.
(§4) [(Ti−Tz)/(C−Tz)]×100 for concentrations for which Ti>/=Tz
(§5) [(Ti−Tz)/(C−Tz)]×100=50, • which is the drug concentration resulting in a 50% reduction in the net growth in control cells during the drug incubation. TGI: Total growth inhibition is calculated from
(§6) Ti=Tz. • The drug concentration resulting in total growth inhibition (down to the ‘time 0’ baseline). LC50: Net loss of cell growth at 50% is calculated from
(§7) [(Ti−Tz)/Tz]×100=−50. • The concentration of drug resulting in a 50% reduction in the cell number at the end of the drug treatment as compared to that at the beginning (time 0) indicating a net loss of cells following treatment.
(§8) Values are calculated for each of these three parameters if the level of activity is reached; however, if the effect is not reached or is exceeded, the value for that parameter is expressed as greater or less than the maximum or minimum concentration tested.

HCC1143 = assay: cells; format: cell-based
Description: as §1, §2, §3, §4, §5, §6, §7, §8

ZR-75-1 = assay: Panel A proliferation assay (CellTiter-Glo); HER2 2 copies, KRAS WT, PIK3CA WT; format: cell-based, human; settings: for pIC50: Homo sapiens
Description: (§9) A total of 15 breast cancer cell lines were used in this study. These cells were cultured in RPMI-1640 and supplemented with 5% or 10% fetal bovine serum, 2 mM GlutaMAX™ and 1 mM sodium pyruvate, or in growth medium recommended by the suppliers [American Type Culture Collection, Manassas, Va., USA; Developmental Therapeutics Program, National Cancer Institute, Bethesda, Md., USA; German Collection of Microorganisms and Cell Cultures (DSMZ), Braunschweig, Germany; European Collection of Cell Cultures (ECACC), Porton Down, UK]. Cells of each line were seeded into a 384-well microtiter plate at two cell densities. Low density ranges were 300-1800 cells/well, and a high density was 600 to 3600 cells/well). The plating density was determined by the rate of proliferation of the cell line in the absence of any inhibitor and varied amongst cell lines. High plating densities were double that of low density. Each cell density was plated in triplicate. In total there were 30 wells to be treated with increasing concentrations of Compound B for each cell line at each density. In addition, there were 24 wells of dimethyl sulfoxide (DMSO)-treated controls at each density. After seeding, the cells were incubated at 37° C. in 5% CO2 for 24 hours. Subsequently, Compound B was added to each cell line with 10 concentrations. The dosing solution of Compound B was first prepared in DMSO at a master stock concentration of 10 mM. […] were then made of the stock solution to give a range of working stock concentrations; 10.00 mM, 3.164 mM, 1.001 mM, 316.9 μM, 100.3 μM, 31.74 μM, 10.04 μM, 3.178 μM, 1.006 μM and 318.3 nM. The working stock concentrations of Compound B were then dispensed into the seeded cancer cell lines using a Biomek FX liquid handler to give final treatment concentrations of 0.1% of the stock concentration. A similar volume of DMSO without Compound B was dispensed into the 24 control wells of each seeding density at a concentration of 0.1%. Also, a zero-time plate prepared with a similar cell seeding was read for each cell line at each seeding density immediately after the addition of the DMSO control. After a 72 h incubation, an equal volume of the CellTiter-Glo (CellTiter-Glo Luminescent Cell Viability Assay, Promega, Madison, Wis.) to that of the cell culture medium was added into each well of the plate. After the contents were mixed to induce cell lysis and stabilization, cell luminescence was recorded using a SpectraMax M5^e (Molecular Devices, Sunnyvale, Calif., USA)
(§10) The luminescence of Compound B treated cells was compared relative to the average of the 24 DMSO-treated control wells at each cell density for every concentration of Compound B for all triplicate wells. The percent intensity values were used in model 205 of XLfit in Microsoft Excel to calculate gIC50s for the low and high seeding density (a 4 parameter logistical fit). Specifically, the midpoint of the growth window (the gIC50) falls half way between the number of cells at the time of compound addition (T=0) and the growth of control cells treated with DMSO. The gIC50 value serves as a metric for measuring the inhibition of proliferation in cancer cells. The curves for each seeding density for each cell line were manually inspected for both data quality and appropriateness of curve fitting. Where the starting data were poor the curve and subsequent gIC50s were excluded from further analysis. Cell line seedings were considered of poor quality when the r^2 value of the fitted curve was <0.75. Finally, where data quality permits, the Ymin values (defined as the maximum growth inhibition relative to the cell density at Time-zero) were calculated as a measure of cytotoxicity where data were of reasonable quality.

MDA-MB-175-VII = assay: as above; format: cell-based, human; settings: for pIC50: Homo sapiens
Description: as §9, §10

HCC70 = assay: Panel A proliferation assay (CellTiter-Glo); HER2 Loss 1 copy, KRAS WT, PIK3CA WT; format: cell-based, human; settings: for pIC50: Homo sapiens
Description: as §9
as §10, with “The curves for each seeding density for each cell line were manually inspected for both data quality and appropriateness of curve fitting. Where the starting data were poor the curve and subsequent gIC50s were excluded from further analysis. Cell line seedings were considered of poor quality when the r^2 value of the fitted curve was <0.75.” left out

UACC-812 = assay: Panel A proliferation assay (CellTiter-Glo); HER2 Gain ≧5, KRAS WT, PIK3CA WT; format: cell-based, human; settings: for pIC50: Homo sapiens
Description: as §9, §10

SK-BR-3 = assay: as above; format: cell-based, human; settings: for pIC50: Homo sapiens
Description: as §9, §10

## COc1ncc(-c2ccc3nccc(-c4ccnnc4)c3c2)cc1NS(=O)(=O)c1ccc(F)cc1F [Compound B, 2,4-difluoro-N-{2-(methyloxy)-5-[4-(4-pyridazinyl)-6-quinolinyl]-3-pyridinyl}benzenesulfonamide]
BT483; BT483, total growth inhibition
  TGI: 8.5 nM
BT483; Homo sapiens, BT-483, 72 h, BT483, three-day drug treatment, read-out: gIC50
  pIC50: 8.82
BT483; Homo sapiens, BT-483, BT483, 50% net loss of cells vs time 0, read-out: LC50 (the source's name)
  CC50: 1170 nM
HCC1143; HCC1143, total growth inhibition
  TGI: 344.0 nM
HCC1143; Homo sapiens, 72 h, HCC1143, three-day drug treatment, read-out: gIC50
  pIC50: 7.47
HCC1143; Homo sapiens, HCC1143, 50% net loss of cells vs time 0, read-out: LC50 (the source's name)
  CC50: 19500 nM
ZR-75-1; ZR-75-1, high seeding density, 72 h, read-out: High Density gIC50
  pIC50: 9.05
ZR-75-1; ZR-75-1, low seeding density, 72 h, read-out: Low Density gIC50
  pIC50: 9.10
ZR-75-1; ZR-75-1, mean of low and high density, read-out: Mean gIC50
  pIC50: 9.07
ZR-75-1; ZR-75-1, high density, % of cells at T = 0
  High Density Y-Min: 22.1%
ZR-75-1; ZR-75-1, low density, % of cells at T = 0
  Low Density Y-Min: 19.8%
MDA-MB-175-VII; high seeding density, 72 h, read-out: High Density gIC50
  pIC50: 8.96
MDA-MB-175-VII; low seeding density, 72 h, read-out: Low Density gIC50
  pIC50: 8.77
MDA-MB-175-VII; mean of low and high density, read-out: Mean gIC50
  pIC50: 8.85
MDA-MB-175-VII; high density, % of cells at T = 0
  High Density Y-Min: 12.2%
MDA-MB-175-VII; low density, % of cells at T = 0
  Low Density Y-Min: 19.8%
HCC70; HCC70, high density, % of cells at T = 0
  High Density Y-Min: 8.7%
HCC70; HCC70, low density, % of cells at T = 0
  Low Density Y-Min: 9.6%
HCC70; HCC70, high seeding density, 72 h, read-out: High Density gIC50
  pIC50: 8.32
HCC70; HCC70, low seeding density, 72 h, read-out: Low Density gIC50
  pIC50: 8.34
HCC70; HCC70, mean of low and high density, read-out: Mean gIC50
  pIC50: 8.33
UACC-812; UACC-812, high seeding density, 72 h, read-out: High Density gIC50
  pIC50: 10.00
UACC-812; UACC-812, low seeding density, 72 h, read-out: Low Density gIC50
  pIC50: 10.00
UACC-812; UACC-812, mean of low and high density, read-out: Mean gIC50
  pIC50: 10.00
UACC-812; UACC-812, high density, % of cells at T = 0
  High Density Y-Min: 12.6%
UACC-812; UACC-812, low density, % of cells at T = 0
  Low Density Y-Min: 12.1%
SK-BR-3; SK-BR-3, high seeding density, 72 h, read-out: High Density gIC50
  pIC50: 8.38
SK-BR-3; SK-BR-3, low seeding density, 72 h, read-out: Low Density gIC50
  pIC50: 8.54
SK-BR-3; SK-BR-3, mean of low and high density, read-out: Mean gIC50
  pIC50: 8.45
SK-BR-3; SK-BR-3, high density, % of cells at T = 0
  High Density Y-Min: 54.5%
SK-BR-3; SK-BR-3, low density, % of cells at T = 0
  Low Density Y-Min: 52.3%
